Like-named read-outs stand apart in the source and are kept apart here.
Assays:
[1] = system: Key Broadleaf Weed and Crop Species; assay: Post-Emergent Test II: postemergent herbicidal activity, visual rating after 14 d (Table 7); type: in vivo; conditions: post-emergence, 336 h; for pest or weed control at 70 g/ha: 70 g ai/ha; for pest or weed control at 140 g/ha: 140 g ai/ha; for pest or weed control at 35 g/ha: 35 g ai/ha
Method in brief: (§1)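 Post-emergence foliar spray, 187 L/ha, first/second true leaf stage plants in potting mix (pH 6.0-6.8). Rates: top rate and 2-fold serial dilutions to 1/16×. Solvent-blank controls. Readout: visual % kill at 14 d.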

[2] = system: Key Grass and Sedge Weeds as well as Grass Crops; assay: Post-Emergent Test II: postemergent herbicidal activity, visual rating after 14 d (Table 8); type: in vivo; conditions: post-emergence, 336 h; for pest or weed control at 35 g/ha: 35 g ai/ha; for pest or weed control at 70 g/ha: 70 g ai/ha; for pest or weed control at 140 g/ha: 140 g ai/ha
Method in brief: as §1

[3] = ABUTH: velvetleaf (Abutilon theophrasti), read-out: Visual Growth Reduction (%) 14 Days After Application ABUTH
[4] = AMARE: redroot pigweed (Amaranthus retroflexus), read-out: Visual Growth Reduction (%) 14 Days After Application AMARE
[5] = BRSNN: oilseed rape, canola (Brassica napus), read-out: Visual Growth Reduction (%) 14 Days After Application BRSNN
[6] = CHEAL: lambsquarters (Chenopodium album), read-out: Visual Growth Reduction (%) 14 Days After Application CHEAL
[7] = EPHHL: wild poinsettia (Euphorbia heterophylla), read-out: Visual Growth Reduction (%) 14 Days After Application EPHHL
[8] = HELAN: sunflower (Helianthus annuus), read-out: Visual Growth Reduction (%) 14 Days After Application HELAN
[9] = barnyardgrass (Echinochloa crus-galli), read-out: Visual Growth Reduction (%) 14 Days After Application, ECHCG
[10] = giant foxtail (Setaria faberi), read-out: Visual Growth Reduction (%) 14 Days After Application, SETFA
[11] = maize, corn (Zea mays), read-out: Visual Growth Reduction (%) 14 Days After Application, ZEAMX
[12] = rice (Oryza sativa), read-out: Visual Growth Reduction (%) 14 Days After Application, ORYSA
[13] = wheat, spring (Triticum aestivum), read-out: Visual Growth Reduction (%) 14 Days After Application, TRZAS
[14] = yellow nutsedge (Cyperus esculentus), read-out: Visual Growth Reduction (%) 14 Days After Application, CYPES

| SMILES | pest or weed control at 70 g/ha [1, 3] [%] | pest or weed control at 140 g/ha [1, 3] [%] | pest or weed control at 70 g/ha [1, 4] [%] | pest or weed control at 140 g/ha [1, 4] [%] | pest or weed control at 70 g/ha [1, 5] [%] | pest or weed control at 140 g/ha [1, 5] [%] | pest or weed control at 70 g/ha [1, 6] [%] | pest or weed control at 140 g/ha [1, 6] [%] | pest or weed control at 70 g/ha [1, 7] [%] | pest or weed control at 140 g/ha [1, 7] [%] | pest or weed control at 70 g/ha [1, 8] [%] | pest or weed control at 140 g/ha [1, 8] [%] | pest or weed control at 70 g/ha [2, 9] [%] | pest or weed control at 140 g/ha [2, 9] [%] | pest or weed control at 70 g/ha [2, 10] [%] | pest or weed control at 140 g/ha [2, 10] [%] | pest or weed control at 70 g/ha [2, 11] [%] | pest or weed control at 140 g/ha [2, 11] [%] | pest or weed control at 70 g/ha [2, 12] [%] | pest or weed control at 140 g/ha [2, 12] [%] | further results |
| --- | --- | --- | --- | --- | --- | --- | --- | --- | --- | --- | --- | --- | --- | --- | --- | --- | --- | --- | --- | --- | --- |
| Nc1c(F)c(-c2ccc(Cl)c3c2OC(F)(F)O3)nc(C(=O)O)c1Cl [Compound 82] | 60 to 74 | 75 to 84 | 95 to 100 | 95 to 100 | 95 to 100 | 95 to 100 | 95 to 100 | 95 to 100 | 0 to 29 | 0 to 29 | 85 to 94 | 95 to 100 | 0 to 29 | 0 to 29 | 0 to 29 | 0 to 29 | 60 to 74 | 60 to 74 | 30 to 44 | 30 to 44 | pest or weed control at 35 g/ha ([1]; lambsquarters (Chenopodium album), read-out: Visual Growth Reduction (%) 14 Days After Application CHEAL): 95 to 100%; pest or weed control at 35 g/ha ([1]; oilseed rape, canola (Brassica napus), read-out: Visual Growth Reduction (%) 14 Days After Application BRSNN): 95 to 100%; pest or weed control at 35 g/ha ([1]; redroot pigweed (Amaranthus retroflexus), read-out: Visual Growth Reduction (%) 14 Days After Application AMARE): 95 to 100%; pest or weed control at 35 g/ha ([1]; sunflower (Helianthus annuus), read-out: Visual Growth Reduction (%) 14 Days After Application HELAN): 85 to 94%; pest or weed control at 35 g/ha ([1]; velvetleaf (Abutilon theophrasti), read-out: Visual Growth Reduction (%) 14 Days After Application ABUTH): 30 to 44%; pest or weed control at 35 g/ha ([1]; wild poinsettia (Euphorbia heterophylla), read-out: Visual Growth Reduction (%) 14 Days After Application EPHHL): 0 to 29%; pest or weed control at 35 g/ha ([2]; barnyardgrass (Echinochloa crus-galli), read-out: Visual Growth Reduction (%) 14 Days After Application ECHCG): 0 to 29%; pest or weed control at 35 g/ha ([2]; giant foxtail (Setaria faberi), read-out: Visual Growth Reduction (%) 14 Days After Application SETFA): 0 to 29%; pest or weed control at 35 g/ha ([2]; maize, corn (Zea mays), read-out: Visual Growth Reduction (%) 14 Days After Application ZEAMX): 45 to 59%; pest or weed control at 35 g/ha ([2]; rice (Oryza sativa), read-out: Visual Growth Reduction (%) 14 Days After Application ORYSA): 0 to 29%; pest or weed control at 35 g/ha ([2]; wheat, spring (Triticum aestivum), read-out: Visual Growth Reduction (%) 14 Days After Application TRZAS): 60 to 74%; pest or weed control at 70 g/ha [2, 13]: 60 to 74%; pest or weed control at 140 g/ha [2, 13]: 75 to 84%; pest or weed control at 35 g/ha ([2]; yellow nutsedge (Cyperus esculentus), read-out: Visual Growth Reduction (%) 14 Days After Application CYPES): 0 to 29%; pest or weed control at 70 g/ha [2, 14]: 30 to 44%; pest or weed control at 140 g/ha [2, 14]: 45 to 59% |
| COC(=O)c1nc(-c2ccc(F)c3c2OCO3)c(F)c(N)c1Cl [Compound 83] | 85 to 94 | 95 to 100 | 95 to 100 | 95 to 100 | 95 to 100 | 95 to 100 | 95 to 100 | 95 to 100 | 0 to 29 | 0 to 29 | 95 to 100 | 95 to 100 | 0 to 29 | 0 to 29 | 0 to 29 | 0 to 29 | 0 to 29 | 0 to 29 | 0 to 29 | 0 to 29 | pest or weed control at 35 g/ha [1, 3]: 85 to 94%; pest or weed control at 35 g/ha [1, 4]: 95 to 100%; pest or weed control at 35 g/ha [1, 5]: 30 to 44%; pest or weed control at 35 g/ha [1, 6]: 95 to 100%; pest or weed control at 35 g/ha [1, 7]: 0 to 29%; pest or weed control at 35 g/ha [1, 8]: 85 to 94%; pest or weed control at 35 g/ha [2, 9]: 0 to 29%; pest or weed control at 35 g/ha [2, 10]: 0 to 29%; pest or weed control at 35 g/ha [2, 11]: 0 to 29%; pest or weed control at 35 g/ha [2, 12]: 0 to 29%; pest or weed control at 35 g/ha [2, 13]: 0 to 29%; pest or weed control at 70 g/ha [2, 13]: 0 to 29%; pest or weed control at 140 g/ha [2, 13]: 0 to 29%; pest or weed control at 35 g/ha [2, 14]: 0 to 29%; pest or weed control at 70 g/ha [2, 14]: 0 to 29%; pest or weed control at 140 g/ha [2, 14]: 0 to 29% |

From patent publication US9149038B2, “4-amino-6-(heterocyclic)picolinates and 6-amino-2-(heterocyclic)pyrimidine-4-carboxylates and their use as herbicides” (Dow AgroSciences LLC, priority 2013, dated 2015)
